Results: PubChem BioAssay (NCI)
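Exposure lasted 48 hours, with cells grown in 96-well plates and compounds tested at five concentrations. GI50 is the concentration that inhibits growth by half. The concentration for full growth arrest is given as TGI.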

Tests used:
Experiment in all cases: NCI-60 cell line screen, 48 h
CCRF-CEM leukemia = test system: CCRF-CEM leukemia
HCT-15 colon = test system: HCT-15 colon
MOLT-4 leukemia = test system: MOLT-4 leukemia
OVCAR-4 ovarian = test system: OVCAR-4 ovarian
OVCAR-5 ovarian = test system: OVCAR-5 ovarian
OVCAR-8 ovarian = test system: OVCAR-8 ovarian
SK-MEL-28 melanoma = test system: SK-MEL-28 melanoma
TK-10 renal = test system: TK-10 renal
UO-31 renal = test system: UO-31 renal
SR leukemia = test system: SR leukemia

Compound	GI50 (CCRF-CEM leukemia)	TGI (CCRF-CEM leukemia)	GI50 (HCT-15 colon)	TGI (HCT-15 colon)	GI50 (MOLT-4 leukemia)	TGI (MOLT-4 leukemia)	GI50 (OVCAR-4 ovarian)	TGI (OVCAR-4 ovarian)	GI50 (OVCAR-5 ovarian)	TGI (OVCAR-5 ovarian)	GI50 (OVCAR-8 ovarian)	TGI (OVCAR-8 ovarian)	GI50 (SK-MEL-28 melanoma)	TGI (SK-MEL-28 melanoma)	GI50 (TK-10 renal)	TGI (TK-10 renal)	GI50 (UO-31 renal)	TGI (UO-31 renal)	TGI (SR leukemia)	GI50 (SR leukemia)
Cc1ccccc1NC(=O)NC(CC(N)=O)c1ccc2c(c1)nc(-c1cccc(Oc3ccc(C(C)(C)C)cc3)c1)n2CCCN1CCCCC1C (stereo unspecified)	3.03 µM	15.1 µM	12.5 µM	27.1 µM	3.39 µM	9.65 µM	3.07 µM	8.39 µM	5.21 µM	12 µM	2.44 µM	6.63 µM	1.89 µM	3.51 µM	4.28 µM	9.01 µM	16.4 µM	31.9 µM		
COc1ccc(Cc2ccccc2C(=O)O)c2ccccc12		95.3 µM		92.4 µM				> 100 µM		59.6 µM		> 100 µM		64.2 µM		50.2 µM		> 100 µM	> 100 µM	
CC1SC(c2cccs2)N(NC(=O)C(O)c2ccccc2)C1=O (stereo unspecified)	> 100 µM	> 100 µM	> 100 µM	> 100 µM	> 100 µM	> 100 µM	> 100 µM	> 100 µM	> 100 µM	> 100 µM	> 100 µM	> 100 µM	> 100 µM	> 100 µM	> 100 µM	> 100 µM	> 100 µM	> 100 µM		
COC(=O)/C(C#N)=C1\N=NNN1CCCc1ccccc1		> 100 µM		> 100 µM		> 100 µM						> 100 µM		> 100 µM		> 100 µM		> 100 µM		
COc1ccc2c(CNCCCCO)cc3cc4c(cc3c2c1)OCO4	0.777 µM	10.9 µM	1.43 µM	8.61 µM	0.263 µM	3.94 µM	2.31 µM	7.54 µM	2.72 µM	8.95 µM	0.341 µM	6.68 µM	4.93 µM	11 µM	1.85 µM	9.98 µM	0.21 µM	4.12 µM		
CC1=C(C(=O)Nc2ccc(F)c(Cl)c2)C(c2cccc(Cl)c2)NC(=O)N1 (stereo unspecified)	21.2 µM	58.2 µM	20.6 µM	46.9 µM					23 µM	45.7 µM	17.5 µM	39.7 µM	13.8 µM	28 µM	15.8 µM	41.6 µM	16.1 µM	38.1 µM		
N#Cc1c2ccccc2c2nnc3cc(Cl)c(Cl)cc3n12	85.4 µM	> 100 µM	33 µM	> 100 µM	27.4 µM	> 100 µM	40.8 µM	> 100 µM	> 100 µM	> 100 µM	40 µM	> 100 µM			> 100 µM	> 100 µM	23.3 µM	65.8 µM		
Cn1c2ccccc2c2c3c(c4c5ccccc5n(CCCCCC#N)c4c21)C(=O)N(O)C3=O	0.374 µM	> 100 µM	1.82 µM	50.9 µM			1.91 µM	9.33 µM	2.43 µM	8.04 µM	0.759 µM	10.8 µM	1.72 µM	9.91 µM	3.94 µM	40 µM	0.374 µM	1.97 µM	> 100 µM	0.333 µM
O=c1c2ccccc2nc(-c2ccc(Cl)cc2)n1O		59.8 µM		> 100 µM		> 100 µM		> 100 µM		> 100 µM		48.4 µM				88 µM		5.79 µM		
CCN(CCCl)CCNc1c2ccccc2nc2ccc(OC)cc12		2.41 µM		3.39 µM		0.341 µM		3.24 µM		4.04 µM		2.26 µM		3.67 µM		5.82 µM		3.98 µM		
CC(CN(CP(=O)([O-])[O-])CP(=O)([O-])[O-])N(CP(=O)([O-])[O-])CP(=O)([O-])[O-].N[C@@H]1CCCC[C@@H]1N.[Pt+2] (stereo unspecified)	> 100 µM	> 100 µM	> 100 µM	> 100 µM	> 100 µM	> 100 µM	> 100 µM	> 100 µM	> 100 µM	> 100 µM	> 100 µM	> 100 µM	> 100 µM	> 100 µM	> 100 µM	> 100 µM	> 100 µM	> 100 µM		
C/C=C/C1(NS(=O)(=O)c2ccc(C)cc2)CCC(C(C)(C)C)CC1 (stereo unspecified)		43.2 µM		93.7 µM		39.9 µM		48.4 µM		39.5 µM		> 100 µM				94.6 µM		62.3 µM	32.9 µM	
O=C1c2cccnc2-c2nc(-c3ccc([N+](=O)[O-])cc3)cc3c2c1nc1ccccc13			1.97 µM	8.04 µM	53.5 µM	> 100 µM	13.4 µM	30.7 µM	12.5 µM	27.5 µM	1.5 µM	6.76 µM	12.7 µM	27.8 µM	8.41 µM	24.9 µM	5.1 µM	> 66.1 µM		
N#CC(C#N)=C1NC(=O)C(c2ccccc2)C(=O)N1 (stereo unspecified)		> 100 µM		> 100 µM		> 100 µM		> 100 µM		> 100 µM		> 100 µM				> 100 µM		> 100 µM	> 100 µM	
NC(=O)NC(=O)CI	0.757 µM	2.31 µM	1.68 µM	3.55 µM	1.74 µM	4.13 µM	1.77 µM	4.08 µM	11.3 µM	26.1 µM	3.23 µM	11.9 µM	13 µM	26.2 µM			1.68 µM	3.19 µM	7.69 µM	2.52 µM
NS(=O)(=O)c1ccc(-n2nc(-c3ccc(Cl)cc3)cc2C2=CC(=O)C=CC2=O)cc1	3.57 µM	> 100 µM	16.1 µM	32.2 µM	> 100 µM	> 100 µM			19.5 µM	46.1 µM	24.2 µM	73.7 µM			12.5 µM	28.3 µM	41.7 µM	> 100 µM	> 100 µM	26.7 µM
